Results: PubChem BioAssay (NCI)
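Exposure lasted 48 hours, with cells grown in 96-well plates and compounds tested at five concentrations. The concentration for full growth arrest is given as TGI.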

Key:
Assay in all cases: NCI anticancer screen, dose series, 48 h
[1] = system: RXF 393 renal
[2] = system: SK-MEL-5 melanoma
[3] = system: OVCAR-3 ovarian
[4] = system: HL-60(TB) leukemia
[5] = system: KM12 colon
[6] = system: OVCAR-8 ovarian
[7] = system: SF-268 CNS
[8] = system: OVCAR-5 ovarian
[9] = system: T-47D breast
[10] = system: A549 NSCLC
[11] = system: NCI-H522 lung
[12] = system: MDA-MB-435
[13] = system: SNB-75 CNS
[14] = system: EKVX NSCLC
[15] = system: M14 melanoma
[16] = system: DU-145 prostate
[17] = system: CCRF-CEM leukemia
[18] = system: UACC-257 melanoma
[19] = system: U251 CNS
[20] = system: UO-31 renal
[21] = system: MOLT-4 leukemia
[22] = system: BT-549 breast
[23] = system: ACHN renal
[24] = system: NCI-H460 lung
[25] = system: HS 578T breast
[26] = system: NCI-H23 lung
[27] = system: SF-295 CNS
[28] = system: HT29 colon
[29] = system: NCI-H226 lung
[30] = system: TK-10 renal
[31] = system: IGROV1 ovarian
[32] = system: K-562 leukemia
[33] = system: MDA-N
[34] = system: 786-0 renal
[35] = system: SF-539 CNS
[36] = system: SNB-19 CNS
[37] = system: OVCAR-4 ovarian
[38] = system: SR leukemia
[39] = system: HOP-62 NSCLC
[40] = system: UACC-62 melanoma
[41] = system: SN12C renal
[42] = system: MCF7 breast
[43] = system: MDA-MB-231 breast
[44] = system: HOP-92 NSCLC
[45] = system: SK-MEL-2 melanoma
[46] = system: PC-3 prostate
[47] = system: HCC-2998 colon
[48] = system: HCT-116 colon
[49] = system: SW-620 colon
[50] = system: CAKI-1 renal
[51] = system: SK-OV-3 ovarian
[52] = system: A498 renal
[53] = system: LOX IMVI melanoma
[54] = system: MALME-3M melanoma
[55] = system: NCI/ADR-RES ovarian
[56] = system: HCT-15 colon
[57] = system: COLO 205 colon
[58] = system: SK-MEL-28 melanoma
[59] = system: RPMI-8226 leukemia

## COc1cc(/C=N/Nc2nnc3c4ccccc4c4ncccc4c3n2)cc(OC)c1OC
[1]
  TGI: > 10 µM
[2]
  TGI: > 10 µM
[3]
  TGI: > 10 µM
[4]
  TGI: > 10 µM
[5]
  TGI: > 10 µM
[6]
  TGI: 6.58 µM
[7]
  TGI: > 10 µM
[8]
  TGI: > 10 µM
[9]
  TGI: 4.11 µM
[10]
  TGI: > 10 µM
[11]
  TGI: 5.75 µM
[12]
  TGI: > 10 µM
[13]
  TGI: > 10 µM
[14]
  TGI: > 10 µM
[15]
  TGI: > 10 µM
[16]
  TGI: > 10 µM
[17]
  TGI: > 10 µM
[18]
  TGI: 8.23 µM
[19]
  TGI: > 10 µM
[20]
  TGI: > 10 µM
[21]
  TGI: > 10 µM
[22]
  TGI: > 10 µM
[23]
  TGI: > 10 µM
[24]
  TGI: 5.68 µM
[25]
  TGI: > 10 µM
[26]
  TGI: 8.25 µM
[27]
  TGI: > 10 µM
[28]
  TGI: 5.4 µM
[29]
  TGI: 9.12 µM
[30]
  TGI: > 10 µM
[31]
  TGI: > 10 µM
[32]
  TGI: > 10 µM
[33]
  TGI: 8.09 µM
[34]
  TGI: > 10 µM
[35]
  TGI: > 10 µM
[36]
  TGI: > 10 µM
[37]
  TGI: > 10 µM
[38]
  TGI: > 10 µM

## Cc1ccc(S(=O)(=O)N=Nc2c(O)[nH]c3c(Cl)cc(Cl)cc23)cc1
[39]
  TGI: > 100 µM
[1]
  TGI: > 100 µM
[2]
  TGI: > 100 µM
[3]
  TGI: > 100 µM
[4]
  TGI: > 100 µM
[5]
  TGI: > 100 µM
[40]
  TGI: > 100 µM
[41]
  TGI: > 100 µM
[6]
  TGI: > 100 µM
[8]
  TGI: > 100 µM
[42]
  TGI: > 100 µM
[43]
  TGI: > 100 µM
[44]
  TGI: > 100 µM
[45]
  TGI: > 100 µM
[46]
  TGI: > 100 µM
[10]
  TGI: > 100 µM
[12]
  TGI: > 100 µM
[47]
  TGI: > 100 µM
[48]
  TGI: > 100 µM
[49]
  TGI: > 100 µM
[14]
  TGI: > 100 µM
[15]
  TGI: > 100 µM
[17]
  TGI: > 100 µM
[18]
  TGI: > 100 µM
[19]
  TGI: > 100 µM
[50]
  TGI: > 100 µM
[20]
  TGI: > 100 µM
[21]
  TGI: > 100 µM
[22]
  TGI: > 100 µM
[23]
  TGI: > 100 µM
[24]
  TGI: > 100 µM
[25]
  TGI: > 100 µM
[51]
  TGI: > 100 µM
[26]
  TGI: > 100 µM
[27]
  TGI: > 100 µM
[28]
  TGI: > 100 µM
[52]
  TGI: > 100 µM
[53]
  TGI: > 100 µM
[29]
  TGI: > 100 µM
[30]
  TGI: > 100 µM
[31]
  TGI: > 100 µM
[32]
  TGI: > 100 µM
[54]
  TGI: > 100 µM
[33]
  TGI: > 100 µM
[55]
  TGI: > 100 µM
[34]
  TGI: > 100 µM
[35]
  TGI: > 100 µM
[36]
  TGI: > 100 µM
[56]
  TGI: > 100 µM
[37]
  TGI: > 100 µM
[57]
  TGI: > 100 µM
[58]
  TGI: > 100 µM
[38]
  TGI: > 100 µM

## CN(Cc1cnc2nc(N)nc(N)c2n1)c1ccc(C(=O)NC(CCC(=O)NCC(P(=O)(O)O)P(=O)(O)O)C(=O)O)cc1 (stereo unspecified)
[39]
  TGI: 68 µM
[2]
  TGI: > 100 µM
[3]
  TGI: > 100 µM
[40]
  TGI: > 100 µM
[41]
  TGI: > 100 µM
[6]
  TGI: > 100 µM
[7]
  TGI: > 100 µM
[9]
  TGI: > 100 µM
[43]
  TGI: > 100 µM
[45]
  TGI: > 100 µM
[46]
  TGI: > 100 µM
[10]
  TGI: > 100 µM
[11]
  TGI: > 100 µM
[13]
  TGI: > 100 µM
[48]
  TGI: > 100 µM
[49]
  TGI: > 100 µM
[14]
  TGI: > 100 µM
[15]
  TGI: > 100 µM
[16]
  TGI: > 100 µM
[18]
  TGI: > 100 µM
[21]
  TGI: > 100 µM
[23]
  TGI: > 100 µM
[24]
  TGI: > 100 µM
[25]
  TGI: > 100 µM
[51]
  TGI: > 100 µM
[27]
  TGI: > 100 µM
[28]
  TGI: > 100 µM
[53]
  TGI: > 100 µM
[31]
  TGI: > 100 µM
[54]
  TGI: > 100 µM
[33]
  TGI: > 100 µM
[55]
  TGI: > 100 µM
[34]
  TGI: > 100 µM
[56]
  TGI: > 100 µM
[37]
  TGI: > 100 µM
[57]
  TGI: > 100 µM
[38]
  TGI: > 100 µM

## COc1ccccc1Nc1nc(NNC(=O)Cc2ccccc2)nc(NNC(=O)c2ccncc2)n1
[39]
  TGI: > 10 µM
[2]
  TGI: > 10 µM
[4]
  TGI: > 10 µM
[5]
  TGI: > 10 µM
[40]
  TGI: > 10 µM
[41]
  TGI: > 10 µM
[6]
  TGI: > 10 µM
[7]
  TGI: > 10 µM
[42]
  TGI: > 10 µM
[59]
  TGI: > 10 µM
[9]
  TGI: > 10 µM
[43]
  TGI: > 10 µM
[44]
  TGI: > 10 µM
[10]
  TGI: > 10 µM
[13]
  TGI: > 10 µM
[47]
  TGI: > 10 µM
[49]
  TGI: > 10 µM
[14]
  TGI: > 10 µM
[15]
  TGI: > 10 µM
[16]
  TGI: > 10 µM
[17]
  TGI: > 10 µM
[18]
  TGI: > 10 µM
[19]
  TGI: > 10 µM
[50]
  TGI: > 10 µM
[21]
  TGI: > 10 µM
[22]
  TGI: > 10 µM
[24]
  TGI: > 10 µM
[25]
  TGI: > 10 µM
[51]
  TGI: > 10 µM
[26]
  TGI: > 10 µM
[28]
  TGI: > 10 µM
[53]
  TGI: > 10 µM
[30]
  TGI: > 10 µM
[31]
  TGI: > 10 µM
[32]
  TGI: > 10 µM
[54]
  TGI: > 10 µM
[33]
  TGI: > 10 µM
[55]
  TGI: > 10 µM
[34]
  TGI: > 10 µM
[35]
  TGI: > 10 µM
[56]
  TGI: > 10 µM
[37]
  TGI: > 10 µM
[57]
  TGI: > 10 µM
[58]
  TGI: > 10 µM
[38]
  TGI: > 10 µM

## CN(C)CCCOCCn1c2c(c3ccccc31)CCCC2
[39]
  TGI: 28.3 µM
[2]
  TGI: 25.3 µM
[3]
  TGI: 53.1 µM
[4]
  TGI: 20.7 µM
[5]
  TGI: 43.1 µM
[40]
  TGI: 31.1 µM
[41]
  TGI: 32.5 µM
[6]
  TGI: 35.9 µM
[7]
  TGI: > 100 µM
[8]
  TGI: 30.5 µM
[42]
  TGI: 31.5 µM
[59]
  TGI: 33.9 µM
[9]
  TGI: 49.7 µM
[43]
  TGI: 26.6 µM
[44]
  TGI: 46 µM
[45]
  TGI: 26.5 µM
[46]
  TGI: 32.6 µM
[10]
  TGI: 31.8 µM
[12]
  TGI: 34.2 µM
[13]
  TGI: 57.9 µM
[47]
  TGI: 28.4 µM
[48]
  TGI: 28.8 µM
[49]
  TGI: 37.5 µM
[14]
  TGI: 57.8 µM
[15]
  TGI: 32.1 µM
[16]
  TGI: 67.7 µM
[17]
  TGI: 30 µM
[18]
  TGI: 33.3 µM
[19]
  TGI: 41.8 µM
[50]
  TGI: 31.5 µM
[20]
  TGI: 36.9 µM
[21]
  TGI: 30.6 µM
[23]
  TGI: 29 µM
[24]
  TGI: 28.9 µM
[25]
  TGI: 51.6 µM
[26]
  TGI: 94.6 µM
[27]
  TGI: 40.1 µM
[28]
  TGI: 28.5 µM
[53]
  TGI: 31.5 µM
[29]
  TGI: 63.5 µM
[30]
  TGI: 32.6 µM
[31]
  TGI: 34 µM
[32]
  TGI: 58.5 µM
[54]
  TGI: 32.5 µM
[33]
  TGI: 29 µM
[55]
  TGI: 35.2 µM
[34]
  TGI: 28.9 µM
[35]
  TGI: 33.2 µM
[56]
  TGI: 30.5 µM
[37]
  TGI: 44.3 µM
[57]
  TGI: 32.3 µM
[58]
  TGI: 30.2 µM
[38]
  TGI: 41 µM
